The subject of test [1] is type I BMP receptor-dependent p-Smad. Kind of test: Western blot of p-Smad in presence or absence of Dorsomorphin. It counts as cell-based, mouse. Particulars: 10 µM inhibitor, compounds 1 µM, 30 min. The procedure: Total whole cell lysates were prepared and used for Western blot analysis of Smad phosphorylation using anti-p-Smad antibodies.
C2C12 cells (3 mL) were seeded into 35 mm dishes at 7.5 × 10^4 cells/mL in complete growth medium, incubated to reach 80% confluence and serum-starved for 16–18 h. […] Thereafter, the cultures were washed with ice-cold 1X TBS for 2 min. Lysis Buffer (Cell Signaling Technology, Danvers, MA, USA) supplemented with 1 mM PMSF (phenylmethylsulphonyl fluoride) was added to the cultures and whole cell lysates were prepared.
Laemmli sample buffer (4X) was added to the whole cell lysates (20 µg) to a final concentration of 1X and heated at 100 °C for 5 min. The samples were immediately cooled on ice for 5 min and centrifuged at 9500 rpm for 2 min at RT. The samples and the Precision Plus Protein Standard (5 µL; Bio-Rad, Hercules, CA, USA) were loaded on 12% SDS polyacrylamide gels. Protein was separated using the Bio-Rad Mini Protean II Gel Electrophoresis System at 135 V. Meanwhile, 0.2 µm nitrocellulose membranes were pre-incubated in cold 1X Transfer Buffer (10 mM Tris/2.5 mM glycine/20% methanol) for at least 30 min. Next, the separated proteins were transferred at 100 V onto the pre-equilibrated nitrocellulose membranes for 1 h in Transfer Buffer, followed by blocking in 5% BSA/0.1% Tween 20/1X TBS for 30 min. The membranes were incubated overnight at 4 °C with the desired primary rabbit monoclonal antibody (p-Smad1/5(S463/465)/9(S465/467), Smad1 (D5907) XP®, p-Akt (Ser473) (D9E) XP®, or Akt (pan) (C67E7), p-SAPK/JNK (Thr183/Tyr185), SAPK/JNK, β-actin (Cell Signaling Technologies, Danvers, MA, USA)) or rabbit polyclonal antibody (phospho-PI3 Kinase p85 (Tyr458)/p55 (Tyr199) antibody (Cell Signaling Technologies, Danvers, MA, USA), p-p38 MAPK, p38 MAPK, p-ERK1, ERK1/2) (Abclonal, Woburn, MA, USA)) in Antibody Dilution Buffer (1% BSA/0.1% Tween 20/1X TBS) and then washed with 1X TBST (0.1% Tween 20/1X TBS) three times for 15 min. HRP-conjugated Goat Anti-Rabbit IgG secondary antibody (Santa Cruz Biotechnology, Inc., Dallas, TX, USA) in Antibody Dilution Buffer was added to the membranes for 1 h at RT followed by three 15-min washes with 1X TBST. Finally, the blots were developed using SuperSignal ™ West Femto HRP Substrate solutions (Thermo Scientific, Rockford, IL, USA) and analysed using the Omega Lum™ G Imaging System (San Francisco, CA, USA). Quantification of chemiluminescent signals was carried out using ImageJ (Image Processing and Analysis in Java 1.8.0_112).
In general terms: A western blot detects proteins with antibodies after separation by electrophoresis.

Test [2] concerns C2C12 cells. As to the kind of experiment: Cell viability assay in presence or absence of Dorsomorphin. It counts as cell-based, mouse. Particulars: 10 µM inhibitor, 24 h. As for the experimental part:
To resolve whether the SY-LB-35 or SY-LB-57 compound requires type I BMP receptor activity for the induction of cell viability in C2C12 cells, cell viability assays were carried out in the presence or absence of 10 µM DM.
C2C12 cells (100 µL) were seeded in a 96-well plate at 5 × 10^5 cells/mL and incubated overnight in complete growth media to achieve 80% confluency followed by serum-starvation for 16–18 h. […] For BMP receptor inhibition, cell viability assays were carried out in presence or absence of Dorsomorphin (DM; 10 µM; Sigma Aldrich, St. Louis, MO, USA), a non-selective inhibitor of type I BMP receptor activity.
(§1) Next, reagents from the RealTime-Glo™ MT Cell Viability Assay Kit (Promega, Madison, WI, USA) were diluted in SS medium and used according to manufacturer’s protocol. Cellular luminescence was measured using the FilterMax F5 Multi-mode Microplate Reader (Molecular Devices, San Jose, CA, USA). Data from three independent experiments with individual experiments carried out in triplicate was determined and reported as a percentage of control.

Another test concerns p-Smad. Details: method as in PMID 30602563. The conditions noted are these: 30-min stimulation assays; cited from earlier work.
In test [3] the test system is C2C12 cells. As to the kind of experiment: RealTime-Glo MT cell viability assay. It counts as cell-based, mouse. Particulars: C2C12, 24 h, Supplemental Fig. S3. As for the experimental part: To first determine how these novel compounds effect the health of C2C12 cells and to establish the range of subtoxic concentrations for future studies, cell viability assays were carried out. Serum-starved C2C12 cells were exposed to increasing concentrations (0.01–1000 µM) of SY-LB-35 and SY-LB-57 for 24 h. Exposure to Triton X-100 (125 µM) is toxic to cells and was used as a negative control for cell viability. Following the 24-h exposure period, the MT Cell viability substrate was added to the cultures. Only viable cells can reduce the substrate and, thereby, generate a luminescent signal. Any decrease in luminescence was considered an indication of cell death or toxicity.
C2C12 cells (100 µL) were seeded in a 96-well plate at 5 × 10^5 cells/mL and incubated overnight in complete growth media to achieve 80% confluency followed by serum-starvation for 16–18 h.
as §1

`c1cc(-c2cnn3cc(-c4ccc(OCCN5CCCCC5)cc4)cnc23)ccn1` [DM, Dorsomorphin, reference compound]: in test [1], the “Effect of inhibitor on p-Smad increase induced by SY-LB-35 and SY-LB-57” value is “completely prevented the increase in p-Smad levels”. Also, the “Effect of inhibitor on cell viability increases stimulated by SY-LB-35 and SY-LB-57” value in the test on C2C12 cells [2] is “complete inhibition of the cell viability increases”.
On to `Brc1ccc(CSc2nc3ccccc3o2)cc1` [sb4, reference compound], for which the “Increase in p-Smad levels over control” value with p-Smad is recorded as “twofold”.
On to BMP9: recombinant BMP family member, for which the “Effect on cell viability” value with C2C12 cells [3] was “Increases in cell viability”.

B1: BMP6: recombinant BMP family member (protein, UniProt P22004 375-513, looked up)
Bone morphogenetic protein 6: SASSRRRQQSRNRSTQSQDVARVSSASDYNSSELKTACRKHELYVSFQDLGWQDWIIAPKGYAANYCDGECSFPLNAHMNATNHAIVQTLVHLMNPEYVPKPCCAPTKLNAISVLYFDDNSNVILKKYRNMVVRACGCH
With B1, the “Effect on cell viability” value in the test with C2C12 cells [3] is on record as “Increases in cell viability”.

B2: BMP4: BMP ligand used as comparator in the literature study (protein, UniProt P12644 293-408, looked up)
Bone morphogenetic protein 4: SPKHHSQRARKKNKNCRRHSLYVDFSDVGWNDWIVAPPGYQAFYCHGDCPFPLADHLNSTNHAIVQTLVNSVNSSIPKACCVPTELSAISMLYLDEYDKVVLKNYQEMVVEGCGCR
In the case of B2, the “Increase in p-Smad levels over control” value in the test with p-Smad is 11 fold.

B3: BMP7: recombinant BMP family member (protein, UniProt P18075 293-431, looked up)
Bone morphogenetic protein 7: STGSKQRSQNRSKTPKNQEALRMANVAENSSSDQRQACKKHELYVSFRDLGWQDWIIAPEGYAAYYCEGECAFPLNSYMNATNHAIVQTLVHFINPETVPKPCCAPTQLNAISVLYFDDSSNVILKKYRNMVVRACGCH
On to B3, for which, in the test on C2C12 cells [3], the “Effect on cell viability” value is given as “Increases in cell viability”.

The values are drawn from paper PMC9287337 (Scientific Reports, 2022).
